Experimental data from US20160159940A1, “POLYDENDRONS” (The Univeristy of Liverpool, priority 2013, published 2016).

How the values were obtained:
Caco-2 cells [1] = assay: MTT assay of Caco-2 cells (cytotoxicity); type: cell-based
Experimental: (§1) Caco-2 cells were purchased from American Type Culture Collection (ATCC, USA) and maintained in Dulbecco's Modified Eagles Medium (DMEM) supplemented with 15% filtered sterile foetal bovine serum. Cells were incubated at 37° C. and 5% CO2 and were routinely sub-cultured every 4 days when 90% confluent. Cell count and viability was determined using a Countess automated cell counter (Invitrogen).
(§2) Caco-2 cells were seeded at a density of 1.0×10^4 cells/100 μl in DMEM supplemented with 15% FBS into each well of a 96 well plate (Nunclon, Denmark) and incubated at 37° C. and 5% CO2. Cells from 4 separate flasks of biological replicates of each cell type were used (N1-4) to improve statistical power. Media was then aspirated from […] and replaced with media containing each polydendron or aqueous Nile Red solution at an equivalent 1 μM Nile Red concentration then diluted 1:1 in media across the plate up to column 11. Column 12 served as a negative control and consisted of media and untreated cells. Following polydendron addition, the plates were incubated for 24 hours or 120 hours at 37° C., 5% CO2 prior to assessment of cytotoxicity.
Following incubation of treated plates for 24 h or 120 h, 20 μl of 5 mg ml^−1 MTT reagent was added to each well and incubated for 2 hours. Subsequently, 100 μL MTT lysis buffer (50% N—N-Dimethylformamide in water containing 20% SDS, 2.5% glacial acetic acid and 2.5% hydrochloric acid, pH 4.7) was added to each well to lyse overnight at 37° C., 5% CO2. Following incubation the absorbance of each well was read using a Tecan Genosis plate reader at 560 nm (Tecan Magellan, Austria).

Caco-2 cells [2] = assay: ATP assay (CellTiter-Glo) of Caco-2 cells (cytotoxicity); type: cell-based
Experimental: as §1, §2
Following incubation of treated plates for 24 h or 120 h, cells were equilibrated to room temperature for approximately 30 minutes. All but 20 μl of media was removed from each well and 20 μl CellTiter-Glo® (Promega, UK) reagent was added. All reagents were made fresh and in accordance with the manufacturer's instructions. Plates were put on an orbital shaker for 10 minutes to mix contents and allow for stabilisation of luminescence signal. Luminescence was then measured using a Tecan Genios plate reader (Tecan Magellan, Austria).

[3] = Transcellular permeability of Nile Red across Caco-2 cell monolayers; type: in vitro ADME; conditions: human, Caco-2, 1 hour incubation, 1 μM Nile Red, mean of biological triplicate
Experimental: (§3) Transwells were seeded with 3.5×10^4 cells per well and propagated to a monolayer over a 21 day period, during which media in the apical and basolateral wells was changed every other day. Trans-epithelial electrical resistance (TEER) values were monitored until they were >1300Ω. 1 μM of Nile Red polydendron or 1 μM aqueous Nile Red was added to the apical chamber of 4 wells and the basolateral chamber of 4 wells to quantify transport in both Apical to Basolateral (A>B) and Basolateral to Apical (B>A) direction and sampled on an hourly basis over a 4 h time period. Apparent permeability coefficient was then determined by the amount of compound transported over time using the equation: […]
(§4) where (dQ/dt) is the amount per time (nmol·sec^−1), A is the surface area of the filter and C0 is the starting concentration of the donor chamber (1 μM).
(§5) 100 μl of each collected sample was mixed with 900 μl acetone, vortexed, sonicated for 6 minutes and centrifuged at 13300 rpm for 3 minutes. The supernatant was completely dried in a vacuum centrifuge at 30° C. until the dry solid sample was left. This was reconstituted in 150 μl acetonitrile, transferred to a 96-well black walled, flat bottomed plate and measured for fluorescence intensity excitation wavelength 480 nm, emission wavelength 560 nm using a Tecan Genios plate reader (Tecan Magellan, Austria).

Caco-2 cell monolayers = assay: as above; type: in vitro ADME; conditions: 1 hour incubation
Experimental: as §3, §4, §5

[4] = 24 hour incubation, range of concentrations investigated
[5] = 120 hour incubation, range of concentrations investigated

Papp A→B at 1 h, 1 μM ([3]; read-out: Papp Apical > Basolateral): 23.7 ×10⁻⁶ cm/s | Papp B→A at 1 h, 1 μM ([3]; read-out: Papp Basolateral > Apical): 6.38 ×10⁻⁶ cm/s | A > B/B > A ratio (Caco-2 cell monolayers): 3.7140
Structure (SMILES): CCN(CC)c1ccc2nc3c4ccccc4c(=O)cc-3oc2c1 [aqueous Nile Red, Nile red]
metabolic turnover of Caco-2 cells compared to untreated cells (Caco-2 cells [1]; [4]): did not affect metabolic turnover | EC50 (Caco-2 cells [1]; 120 hour incubation, FIG. 7): No EC50 | viability of Caco-2 cells (Caco-2 cells [1]; [5]): did not affect the viability | EC50 (Caco-2 cells [1]; Homo sapiens, Caco-2, 24 hour incubation, FIG. 6, read-out: EC50): 1160 nM | ATP presence compared to untreated cells (Caco-2 cells [2]; [4]): not affected | EC50 (Caco-2 cells [2]; 120 hour incubation, FIG. 9): No EC50 | viability compared to untreated cells (Caco-2 cells [2]; [5]): not affected | EC50 (Caco-2 cells [2]; Homo sapiens, Caco-2, 24 hour incubation, FIG. 8, read-out: EC50): 1950 nM
